Literature values as cited in patent US20090099154A1, “Pharmaceutical Sustained Release Compositions and Processes Thereof” (PANACEA BIOTEC LTD., priority 2005, published 2009).

Columns and labels:
VZV-infected cells = VZV-infected cells cultured in vitro
HSV-2-infected cells = HSV-2-infected cells cultured in vitro
HSV-1-infected cells = HSV-1-infected cells cultured in vitro

In the case of Penciclovir triphosphate, the intracellular half-life (VZV-infected cells) is given as 7 h, the intracellular half-life (HSV-2-infected cells) is given as 20 h and the intracellular half-life (HSV-1-infected cells) is given as 10 h.
